These results are taken from patent US20120225061A1, “TETRASUBSTITUTED CYCLOHEXYL COMPOUNDS AS KINASE INHIBITORS” (priority 2011, published 2012).

In assay [1] the test system is KMS11 (human myeloma cell line). Briefly: Cell proliferation assay (CellTiter-Glo) in KMS11 cells. The assay is classed as cell-based. The settings on record: KMS-11, 72 h, Table 5, 3 days, read-out: KMS11-luc EC50. The procedure:
KMS11 (human myeloma cell line), were cultured in IMDM supplemented with 10% FBS, sodium pyruvate and antibiotics. Cells were plated in the same medium at a density of 2000 cells per well into 96 well tissue culture plates, with outside wells vacant, on the day of assay.
Test compounds supplied in DMSO were diluted into DMSO at 500 times the desired final concentrations before dilution into culture media to 2 times final concentrations.
After 3 days plates were equilibrated to room temperature and equal volume of CellTiter-Glow Reagent (Promega) was added to the culture wells. The plates were agitated briefly and luminescent signal was measured with luminometer.

The target of another assay is Pim1 kinase (Homo sapiens, UniProt P11309). As to the kind of experiment: Pim1 AlphaScreen assay (high ATP). (In Alpha technology, singlet oxygen from a donor bead excites a nearby acceptor bead.)
A further assay addresses Pim2 kinase (Homo sapiens, UniProt Q9P1W9). Briefly: Pim2 AlphaScreen assay (high ATP).
A further assay addresses Pim3 kinase (Homo sapiens, UniProt Q86V86). As to the kind of experiment: Pim3 AlphaScreen assay (high ATP).

The structures appear in SMILES notation.

Sequence of Pim2 kinase (Q9P1W9 whole entry): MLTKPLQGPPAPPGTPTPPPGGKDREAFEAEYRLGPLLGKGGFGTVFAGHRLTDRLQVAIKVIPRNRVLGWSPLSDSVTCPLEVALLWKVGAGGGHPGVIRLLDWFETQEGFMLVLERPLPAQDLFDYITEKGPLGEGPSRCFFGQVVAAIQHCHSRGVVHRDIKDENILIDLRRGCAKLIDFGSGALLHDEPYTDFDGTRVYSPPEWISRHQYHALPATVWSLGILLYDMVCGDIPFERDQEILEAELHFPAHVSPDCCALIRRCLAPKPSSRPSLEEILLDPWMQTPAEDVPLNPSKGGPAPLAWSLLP
Sequence of Pim1 kinase (P11309 whole entry): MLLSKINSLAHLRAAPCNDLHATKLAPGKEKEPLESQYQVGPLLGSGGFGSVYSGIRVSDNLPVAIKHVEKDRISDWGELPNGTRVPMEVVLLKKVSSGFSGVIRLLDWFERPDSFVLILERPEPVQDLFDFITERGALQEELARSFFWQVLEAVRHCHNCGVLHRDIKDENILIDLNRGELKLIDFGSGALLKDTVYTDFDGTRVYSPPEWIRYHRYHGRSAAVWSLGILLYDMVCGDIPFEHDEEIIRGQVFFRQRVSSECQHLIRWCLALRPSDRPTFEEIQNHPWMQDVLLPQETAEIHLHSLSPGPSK
Description for Pim1 kinase: (§1) The activity of Pim 1, Pim 2, & Pim 3 is measured using a homogeneous bead based system quantifying the amount of phosphorylated peptide substrate resulting from kinase-catalyzed phosphoryl transfer to a peptide substrate. Compounds to be tested are dissolved in 100% DMSO and directly distributed to a white 384-well plate at 0.25 μl per well. […] This is followed by the addition of 5 μl/well of Pim 1, Pim 2 or Pim 3 kinase in assay buffer (concentrations described below). Final assay concentrations (described below) are in 2.5% DMSO. The reactions are performed for ˜2 hours, then stopped by the addition of 10 μl of 0.75 μg/ml anti-phospho Ser/Thr antibody (Cell Signaling), 10 μg/ml Protein A AlphaScreen beads (Perkin Elmer), and 10 μg/ml streptavidin coated AlphaScreen beads in stop/detection buffer (50 mM EDTA, 95 mM Tris, pH=7.5, 0.01% Tween-20). The stopped reactions are incubated overnight in the dark. The phosphorylated peptide is detected via an oxygen anion initiated chemiluminescence/fluorescence cascade using the Envision plate reader (Perkin Elmer).
Description for Pim2 kinase: as §1
Description for Pim3 kinase: as §1

Usually EC50 stands for the concentration at which the effect is half-maximal. As usually defined, the IC50 is the concentration at which inhibition is half-maximal. As for `C[C@@H]1C[C@H](c2ccncc2NC(=O)c2ccc(F)c(-c3c(F)cc(C4(O)COC4)cc3F)n2)C[C@H](O)[C@@]1(C)O` [Example 75], in assay [1], the EC50 came out at 5780 nM. Also, the IC50 against Pim1 kinase was found to be 39.1 nM; at Pim2 kinase it was 8640 nM; at Pim3 kinase, 5900 nM.
The matching figures for `C[C@H]1C[C@@H](c2ccncc2NC(=O)c2ccc(F)c(-c3c(F)cc(C4(O)COC4)cc3F)n2)C[C@@H](O)[C@]1(C)O` [Example 76]: 1140 nM, 0.82 nM, 264 nM and 117 nM.
The matching figures for `C[C@H]1C[C@@H](c2ccncc2NC(=O)c2ccc(F)c(-c3c(F)cc(CN4CCCC4=O)cc3F)n2)C[C@@H](O)[C@]1(C)O` [Example 77, 6-(2,6-difluoro-4-((2-oxopyrrolidin-1-yl)methyl)phenyl)-N-(4-((1R,3R,4R,5S)-3,4-dihydroxy-4,5-dimethylcyclohexyl)pyridin-3-yl)-5-fluoropicolinamide]: 136 nM, 0.97 nM, 93.7 nM and 83.3 nM.
The matching figures for `C[C@@H]1C[C@H](c2ccncc2NC(=O)c2ccc(F)c(-c3c(F)cc(CN4CCCC4=O)cc3F)n2)C[C@H](O)[C@@]1(C)O` [Example 78, 6-(2,6-difluoro-4-((2-oxopyrrolidin-1-yl)methyl)phenyl)-N-(4-((1S,3S,4S,5R)-3,4-dihydroxy-4,5-dimethylcyclohexyl)pyridin-3-yl)-5-fluoropicolinamide]: more than 10000 nM, 18.7 nM, 1570 nM and 969 nM.
As for `C[C@@H]1C[C@H](c2ccncc2NC(=O)c2ccc(F)c(-c3c(F)cc(C4(O)CCCC4)cc3F)n2)C[C@H](O)[C@@]1(C)O` [Example 79, 6-(2,6-difluoro-4-(1-hydroxycyclopentyl)phenyl)-N-(4-((1S,3S,4S,5R)-3,4-dihydroxy-4,5-dimethylcyclohexyl)pyridin-3-yl)-5-fluoropicolinamide], the EC50 in assay [1] was more than 10000 nM. Also, the IC50 at Pim1 kinase stood at 6.73 nM; on Pim2 kinase it was 619 nM; at Pim3 kinase it was 470 nM.
The matching figures for `C[C@H]1C[C@@H](c2ccncc2NC(=O)c2ccc(F)c(-c3c(F)cc(C4(O)CCCC4)cc3F)n2)C[C@@H](O)[C@]1(C)O` [Example 80, 6-(2,6-difluoro-4-(1-hydroxycyclopentyl)phenyl)-N-(4-((1R,3R,4R,5S)-3,4-dihydroxy-4,5-dimethylcyclohexyl)pyridin-3-yl)-5-fluoropicolinamide]: 169 nM, 0.15 nM, 126 nM and 55 nM.
The matching figures for `C[C@H]1C[C@@H](c2ccncc2NC(=O)c2ccc(F)c(-c3c(F)cc(C4=CCCC4)cc3F)n2)C[C@@H](N)[C@]1(C)O` [Example 81, N-(4-((1R,3R,4R,5S)-3-amino-4-hydroxy-4,5-dimethylcyclohexyl)pyridin-3-yl)-6-(4-cyclopentenyl-2,6-difluorophenyl)-5-fluoropicolinamide]: 409 nM, 0.03 nM, 4.42 nM and 0.94 nM.
The matching figures for `C[C@H]1C[C@@H](c2ccncc2NC(=O)c2ccc(F)c(-c3c(F)cc(C4(O)CCCC4)cc3F)n2)C[C@@H](N)[C@]1(C)O` [Example 82, N-(4-((1R,3R,4R,5S)-3-amino-4-hydroxy-4,5-dimethylcyclohexyl)pyridin-3-yl)-6-(2,6-difluoro-4-(1-hydroxycyclopentyl)phenyl)-5-fluoropicolinamide]: 43 nM, 0.02 nM, 2.68 nM and 1.18 nM.
As for `C[C@H]1C[C@@H](c2ccncc2NC(=O)c2nc(-c3c(F)cc(C4(O)CCOCC4)cc3F)sc2N)C[C@@H](N)[C@]1(C)O` [Example 83, 5-amino-N-(4-((1R,3R,4R,5S)-3-amino-4-hydroxy-4,5-dimethylcyclohexyl)pyridin-3-yl)-2-(2,6-difluoro-4-(4-hydroxytetrahydro-2H-pyran-4-yl)phenyl)thiazole-4-carboxamide], the EC50 in assay [1] came out at 9300 nM. For the same compound, the figures for the IC50 on Pim1 kinase, on Pim2 kinase and on Pim3 kinase were 0.03 nM, 3.71 nM and 0.71 nM, respectively.
The matching figures for `C[C@H]1C[C@@H](c2ccncc2NC(=O)c2nc(-c3c(F)cc(C4(F)CCOCC4)cc3F)sc2N)C[C@@H](N)[C@]1(C)O` [Example 84, 5-amino-N-(4-((1R,3R,4R,5S)-3-amino-4-hydroxy-4,5-dimethylcyclohexyl)pyridin-3-yl)-2-(2,6-difluoro-4-(4-fluorotetrahydro-2H-pyran-4-yl)phenyl)thiazole-4-carboxamide]: 343 nM, 0.01 nM, 2.8 nM and 0.48 nM.
The matching figures for `C[C@H]1C[C@@H](c2ccncc2NC(=O)c2nc(-c3c(F)cc(C4CCOCC4)cc3F)sc2N)C[C@@H](N)[C@]1(C)O` [Example 85, 5-amino-N-(4-((1R,3R,4R,5S)-3-amino-4-hydroxy-4,5-dimethylcyclohexyl)pyridin-3-yl)-2-(2,6-difluoro-4-(tetrahydro-2H-pyran-4-yl)phenyl)thiazole-4-carboxamide]: 706 nM, 0.01 nM, 1.99 nM and 0.32 nM.
The matching figures for `C[C@H]1C[C@@H](c2ccncc2NC(=O)c2ccc(F)c(-c3c(F)cc(C(C)(C)C#N)cc3F)n2)C[C@@H](N)[C@]1(C)O` [Example 86, N-(4-((1R,3R,4R,5S)-3-amino-4-hydroxy-4,5-dimethylcyclohexyl)pyridin-3-yl)-6-(4-(2-cyanopropan-2-yl)-2,6-difluorophenyl)-5-fluoropicolinamide]: 66 nM, 0.03 nM, 2.74 nM and 2.46 nM.
On to `C[C@H]1C[C@@H](c2ccncc2NC(=O)c2ccc(F)c(-c3c(F)cc(N4CCOCC4)cc3F)n2)C[C@@H](N)[C@]1(C)O` [Example 87, N-(4-((1R,3R,4R,5S)-3-amino-4-hydroxy-4,5-dimethylcyclohexyl)pyridin-3-yl)-6-(2,6-difluoro-4-morpholinophenyl)-5-fluoropicolinamide], for which the EC50 in assay [1] was 57 nM. Moreover, the values for the IC50 against Pim1 kinase, against Pim2 kinase and against Pim3 kinase were 0.01 nM, 1.91 nM and 0.41 nM, respectively.
As for `C[C@H]1C[C@@H](c2ccncc2NC(=O)c2ccc(F)c(-c3c(F)cc(C4(C#N)CCOCC4)cc3F)n2)C[C@@H](N)[C@]1(C)O` [Example 88, N-(4-((1R,3R,4R,5S)-3-amino-4-hydroxy-4,5-dimethylcyclohexyl)pyridin-3-yl)-6-(4-(4-cyanotetrahydro-2H-pyran-4-yl)-2,6-difluorophenyl)-5-fluoropicolinamide], in assay [1], the EC50 stood at 101 nM. The IC50 was determined as 0.03 nM against Pim1 kinase, 5.8 nM at Pim2 kinase and 5.59 nM against Pim3 kinase.
The matching figures for `C[C@H]1C[C@@H](c2ccncc2NC(=O)c2ccc(F)c(-c3c(F)cc(O[C@H]4CCCOC4)cc3F)n2)C[C@@H](N)[C@]1(C)O` [Example 89, N-(4-((1R,3R,4R,5S)-3-amino-4-hydroxy-4,5-dimethylcyclohexyl)pyridin-3-yl)-6-(2,6-difluoro-4-((S)-tetrahydro-2H-pyran-3-yloxy)phenyl)-5-fluoropicolinamide]: 22 nM, 0.02 nM, 1.47 nM and 0.35 nM.
The matching figures for `C[C@H]1C[C@@H](c2ccncc2NC(=O)c2ccc(F)c(-c3c(F)cc(OC4CCOCC4)cc3F)n2)C[C@@H](O)[C@]1(C)O` [Example 90, 6-(2,6-difluoro-4-(tetrahydro-2H-pyran-4-yloxy)phenyl)-N-(4-((1R,3R,4R,5S)-3,4-dihydroxy-4,5-dimethylcyclohexyl)pyridin-3-yl)-5-fluoropicolinamide]: 557 nM, 0.47 nM, 215 nM and 64.4 nM.
The matching figures for `CC(C)OCc1cc(F)c(-c2nc(C(=O)Nc3cnccc3[C@H]3C[C@@H](N)[C@](C)(O)[C@@H](C)C3)ccc2F)c(F)c1` [Example 91, N-(4-((1R,3R,4R,5S)-3-amino-4-hydroxy-4,5-dimethylcyclohexyl)pyridin-3-yl)-6-(2,6-difluoro-4-(isopropoxymethyl)phenyl)-5-fluoropicolinamide]: 102 nM, 0.07 nM, 2.4 nM and 1.62 nM.
With `C[C@H]1C[C@@H](c2ccncc2NC(=O)c2ccc(F)c(-c3c(F)cc(COC4CCOCC4)cc3F)n2)C[C@@H](N)[C@]1(C)O` [Example 92, N-(4-((1R,3R,4R,5S)-3-amino-4-hydroxy-4,5-dimethylcyclohexyl)pyridin-3-yl)-6-(2,6-difluoro-4-((tetrahydro-2H-pyran-4-yloxy)methyl)phenyl)-5-fluoropicolinamide], the EC50 in assay [1] turned out to be 91 nM. In addition, the IC50 against Pim1 kinase was 0.09 nM; at Pim2 kinase it was 3.89 nM; against Pim3 kinase, 2.2 nM.
